Test results as given in patent publication US20110256579A1, “Method for Verifying and/or Identifying Hormonally Effective Substances” (TECHNISCHE UNIVERSITAET DRESDEN, priority 2008, published 2011).

Test system: surface receptors of the a-yeast strain
Test: Shmoo effect positive control with purified α-factor
Assay type: cell-based, Saccharomyces cerevisiae
Settings: BY4741 MATa p423GPD-AR1, p426PGK-MFα1; purified α-factor added
Description: The recognition of the α-factor (yeast pheromone) by surface receptors effects inter alia a directed growth (shmoo effect) of the yeast cells toward the source of the pheromone. Under natural conditions this serves for subsequent fusion with the yeast cell of the opposite mating type.
To the positive control purified α-factor is added. […] Based on this control, the androgen-independent induction of the yeast cells can be checked.

α-factor
directed growth (shmoo effect) of the yeast cells: Directed growth of the yeast cells is observed
